Measurements from patent publication US6737383B1, “Herbicidal oxadiazolidines” (priority 1999, dated 2004).

What was measured:
[1] = tested on: crabgrass; experiment: Test B pre/postemergence crabgrass; assay type: in vivo, Digitaria sanguinalis
Description: (§1) Seeds of bedstraw (Galium aparine), blackgrass (Alopecurus myosuroides), surinam grass (Brachiaria decumbens), cocklebur (Xanthium strumarium), corn (Zea mays), crabgrass (Digitaria sanguinalis), giant foxtail (Setaria faberii), morningglory (Ipomoea hederacea), pigweed (Amaranthus retroflexus), rape (Brassica napus), soybean (Glycine max), sugar beet (Beta vulgaris), velvetleaf (Abutilon theophrasti), wheat (Triticum aestivum), wild oat (Avena fatua) and purple nutsedge (Cyperus rotundus) tubers were planted and treated preemnergence with test chemicals formulated in a non-phytotoxic solvent mixture which included a surfactant.
(§2) At the same time, these crop and weed species were also treated with postemergence applications of test chemicals formulated in the same manner. Plants ranged in height from 2 to 18 cm (1- to 4-leaf stage) for postemergence treatments. Plant species in the flood test consisted of rice (Oryza sativa), smallflower flatsedge (Cyperus difformis), duck salad (Heteranthera limosa) and bamyardgrass (Echinochloa crus-galli) grown to the 2-leaf stage for testing. Treated plants and controls were maintained in a greenhouse for twelve to sixteen days, after which all species were compared to controls and visually evaluated. Plant response ratings, summarized in Table B, are based on a scale of 0 to 10 where 0 is no effect and 10 is complete control. A dash (−) response means no test result.

[2] = tested on: rape; experiment: Test B pre/postemergence rape; assay type: in vivo, Brassica napus
Description: as §1, §2

[3] = tested on: wild oat; experiment: Test B pre/postemergence wild oat; assay type: in vivo, Avena fatua
Description: as §1, §2

[4] = tested on: blackgrass; experiment: Test B pre/postemergence blackgrass; assay type: in vivo, Alopecurus myosuroides
Description: as §1, §2

[5] = tested on: sugar beet; experiment: Test B pre/postemergence sugar beet; assay type: in vivo, Beta vulgaris
Description: as §1, §2

[6] = tested on: cocklebur; experiment: Test B pre/postemergence cocklebur; assay type: in vivo, Xanthium strumarium
Description: as §1, §2

[7] = tested on: velvetleaf; experiment: Test B pre/postemergence velvetleaf; assay type: in vivo, Abutilon theophrasti
Description: as §1, §2

[8] = tested on: purple nutsedge; experiment: Test B pre/postemergence purple nutsedge; assay type: in vivo, Cyperus rotundus
Description: as §1, §2

[9] = tested on: bedstraw; experiment: Test B pre/postemergence bedstraw; assay type: in vivo, Galium aparine
Description: as §1, §2

[10] = tested on: corn; experiment: Test B pre/postemergence corn; assay type: in vivo, Zea mays
Description: as §1, §2

[11] = tested on: giant foxtail; experiment: Test B pre/postemergence giant foxtail; assay type: in vivo, Setaria faberii
Description: as §1, §2

[12] = tested on: surinam grass; experiment: Test B pre/postemergence surinam grass; assay type: in vivo, Brachiaria decumbens
Description: as §1, §2

[13] = tested on: morningglory; experiment: Test B pre/postemergence morningglory; assay type: in vivo, Ipomoea hederacea
Description: as §1, §2

[14] = tested on: soybean; experiment: Test B pre/postemergence soybean; assay type: in vivo, Glycine max
Description: as §1, §2

[15] = tested on: wheat; experiment: Test B pre/postemergence wheat; assay type: in vivo, Triticum aestivum
Description: as §1, §2

[16] = tested on: pigweed; experiment: Test B pre/postemergence pigweed; assay type: in vivo, Amaranthus retroflexus
Description: as §1, §2

[17] = Postemergence, Rate 62 g/ha, scale 0 to 10, 0 is no effect, 10 is complete control
[18] = Postemergence, Rate 125 g/ha, scale of 0 to 10 where 0 is no effect and 10 is complete control
[19] = Preemergence, Rate 62 g/ha, scale of 0 to 10 where 0 is no effect and 10 is complete control
[20] = Preemergence, Rate 125 g/ha, scale of 0 to 10 where 0 is no effect and 10 is complete control
[21] = Preemergence, Rate 250 g/ha, scale 0 (no effect) to 10 (complete control)
[22] = Rate 250 g/ha, Postemergence, scale 0 to 10, 0 is no effect, 10 is complete control
[23] = Rate 500 g/ha, Postemergence, scale 0 to 10, 0 is no effect, 10 is complete control
[24] = Preemergence, Rate 500 g/ha, scale of 0 to 10 where 0 is no effect and 10 is complete control

CC(=O)OCC(CCl)n1c(=O)on(C(=O)N(c2ccc(F)cc2F)C(C)C)c1=O (racemic) [Compound 708]
Plant response rating, Crabgrass [1, 17]: 0 | Crabgrass plant response rating [1, 18]: 0 | Crabgrass plant response rating [1, 19]: 6 | Plant response rating, Crabgrass [1, 20]: 7 | Crabgrass plant response rating [1, 21]: 10 | Crabgrass plant response rating [1, 22]: 0 | Crabgrass plant response rating [1, 23]: 4 | Plant response rating, Rape [2, 17]: 0 | Rape plant response rating [2, 18]: 0 | Rape plant response rating [2, 19]: 0 | Plant response rating, Rape [2, 20]: 0 | Rape plant response rating [2, 21]: 0 | Rape plant response rating [2, 22]: 0 | Rape plant response rating [2, 23]: 0 | Plant response rating, Wild oats [3, 17]: 0 | Wild oats plant response rating [3, 18]: 0 | Wild oats plant response rating [3, 19]: 0 | Plant response rating, Wild oats [3, 20]: 0 | Wild oats plant response rating [3, 21]: 0 | Wild oats plant response rating [3, 22]: 0 | Wild oats plant response rating [3, 23]: 0 | Plant response rating, Blackgrass [4, 17]: 0 | Blackgrass plant response rating [4, 18]: 0 | Blackgrass plant response rating [4, 19]: 0 | Plant response rating, Blackgrass [4, 20]: 2 | Blackgrass plant response rating [4, 21]: 3 | Plant response rating, Blackgrass [4, 24]: 5 | Blackgrass plant response rating [4, 22]: 2 | Blackgrass plant response rating [4, 23]: 2 | Plant response rating, Sugarbeets [5, 17]: 0 | Sugarbeets plant response rating [5, 18]: 0 | Sugarbeets plant response rating [5, 19]: 0 | Plant response rating, Sugarbeets [5, 20]: 0 | Sugarbeets plant response rating [5, 21]: 0 | Sugarbeets plant response rating [5, 22]: 0 | Sugarbeets plant response rating [5, 23]: 0 | Plant response rating, Cocklebur [6, 17]: 0 | Cocklebur plant response rating [6, 18]: 0 | Cocklebur plant response rating [6, 19]: 0 | Plant response rating, Cocklebur [6, 20]: 0 | Cocklebur plant response rating [6, 21]: 0 | Plant response rating, Cocklebur [6, 24]: 0 | Cocklebur plant response rating [6, 22]: 0 | Cocklebur plant response rating [6, 23]: 0 | Plant response rating, Velvetleaf [7, 17]: 0 | Velvetleaf plant response rating [7, 18]: 0 | Velvetleaf plant response rating [7, 19]: 0 | Plant response rating, Velvetleaf [7, 20]: 0 | Velvetleaf plant response rating [7, 21]: 2 | Velvetleaf plant response rating [7, 22]: 3 | Velvetleaf plant response rating [7, 23]: 5 | Plant response rating, Nutsedge [8, 17]: 0 | Nutsedge plant response rating [8, 18]: 0 | Plant response rating, Nutsedge [8, 20]: 0 | Nutsedge plant response rating [8, 21]: 0 | Nutsedge plant response rating [8, 22]: 0 | Nutsedge plant response rating [8, 23]: 0 | Plant response rating, Bedstraw [9, 17]: 0 | Bedstraw plant response rating [9, 18]: 0 | Bedstraw plant response rating [9, 19]: 0 | Plant response rating, Bedstraw [9, 20]: 0 | Bedstraw plant response rating [9, 21]: 0 | Plant response rating, Bedstraw [9, 24]: 0 | Plant response rating, Corn [10, 17]: 0 | Corn plant response rating [10, 18]: 0 | Corn plant response rating [10, 19]: 0 | Plant response rating, Corn [10, 20]: 0 | Corn plant response rating [10, 21]: 0 | Corn plant response rating [10, 22]: 0 | Corn plant response rating [10, 23]: 0 | Plant response rating, Giant foxtail [11, 17]: 0 | Giant foxtail plant response rating [11, 18]: 2 | Giant foxtail plant response rating [11, 19]: 5 | Plant response rating, Giant foxtail [11, 20]: 7 | Giant foxtail plant response rating [11, 21]: 8 | Giant foxtail plant response rating [11, 22]: 4 | Giant foxtail plant response rating [11, 23]: 5 | Plant response rating, B. signalgrass [12, 17]: 0 | B. signalgrass plant response rating [12, 18]: 0 | B. signalgrass plant response rating [12, 19]: 0 | Plant response rating, B. signalgrass [12, 20]: 0 | B. signalgrass plant response rating [12, 21]: 0 | Plant response rating, B. signalgrass [12, 24]: 0 | B. signalgrass plant response rating [12, 22]: 0 | B. signalgrass plant response rating [12, 23]: 2 | Plant response rating, Morningglory [13, 17]: 0 | Morningglory plant response rating [13, 18]: 2 | Morningglory plant response rating [13, 19]: 0 | Plant response rating, Morningglory [13, 20]: 0 | Morningglory plant response rating [13, 21]: 0 | Morningglory plant response rating [13, 22]: 2 | Morningglory plant response rating [13, 23]: 5 | Plant response rating, Soybean [14, 17]: 3 | Soybean plant response rating [14, 18]: 4 | Soybean plant response rating [14, 19]: 0 | Plant response rating, Soybean [14, 20]: 0 | Soybean plant response rating [14, 21]: 0 | Soybean plant response rating [14, 22]: 4 | Soybean plant response rating [14, 23]: 4 | Plant response rating, Wheat [15, 17]: 0 | Wheat plant response rating [15, 18]: 0 | Wheat plant response rating [15, 19]: 0 | Plant response rating, Wheat [15, 20]: 0 | Wheat plant response rating [15, 21]: 0 | Wheat plant response rating [15, 22]: 0 | Wheat plant response rating [15, 23]: 0 | Plant response rating, Redroot pigweed [16, 17]: 0 | Redroot pigweed plant response rating [16, 18]: 0 | Redroot pigweed plant response rating [16, 19]: 0 | Plant response rating, Redroot pigweed [16, 20]: 3 | Redroot pigweed plant response rating [16, 22]: 0 | Redroot pigweed plant response rating [16, 23]: 5
